Measurements: the NIST ThermoML archive (doi:10.1016/j.fluid.2004.11.019)
Numbers after ± are expanded uncertainties.

Test: xn = mol fraction of the nth substance listed
Details: Liquid

CCO [ethanol] + O
Details	mass density [kg/m3]
323.15 K, 40000 kPa, x1 = 0.0801	971.4 ± 0.3
323.15 K, 40000 kPa, x1 = 0.084	970.9 ± 0.3
323.15 K, 40000 kPa, x1 = 0.0879	969.2 ± 0.3
323.15 K, 40000 kPa, x1 = 0.0926	967.6 ± 0.3
323.15 K, 40000 kPa, x1 = 0.0958	966.5 ± 0.3
323.15 K, 40000 kPa, x1 = 0.1006	964.9 ± 0.3
323.15 K, 40000 kPa, x1 = 0.1111	961.3 ± 0.3
323.15 K, 40000 kPa, x1 = 0.1225	957.4 ± 0.3
323.15 K, 40000 kPa, x1 = 0.1296	955.2 ± 0.3
323.15 K, 40000 kPa, x1 = 0.1402	951.7 ± 0.3
323.15 K, 40000 kPa, x1 = 0.151	948.2 ± 0.4
323.15 K, 40000 kPa, x1 = 0.1601	945.3 ± 0.4
323.15 K, 40000 kPa, x1 = 0.1703	942 ± 0.4
323.15 K, 40000 kPa, x1 = 0.18	938.9 ± 0.4
323.15 K, 40000 kPa, x1 = 0.1903	935.8 ± 0.4
323.15 K, 40000 kPa, x1 = 0.1996	932.9 ± 0.4
323.15 K, 40000 kPa, x1 = 0.2269	924.7 ± 0.4
323.15 K, 40000 kPa, x1 = 0.2502	918.2 ± 0.4
323.15 K, 40000 kPa, x1 = 0.2745	911.5 ± 0.5
323.15 K, 40000 kPa, x1 = 0.3009	904.8 ± 0.5
323.15 K, 40000 kPa, x1 = 0.35	892.7 ± 0.5
323.15 K, 40000 kPa, x1 = 0.4034	881 ± 0.6
323.15 K, 40000 kPa, x1 = 0.4501	871.3 ± 0.6
323.15 K, 40000 kPa, x1 = 0.498	862.6 ± 0.6
323.15 K, 40000 kPa, x1 = 0.5501	853.6 ± 0.7
323.15 K, 40000 kPa, x1 = 0.5998	845.8 ± 0.7
323.15 K, 40000 kPa, x1 = 0.6489	838.5 ± 0.7
323.15 K, 40000 kPa, x1 = 0.6967	831.9 ± 0.7
323.15 K, 40000 kPa, x1 = 0.7475	825.5 ± 0.8
323.15 K, 40000 kPa, x1 = 0.7996	819.1 ± 0.8
323.15 K, 40000 kPa, x1 = 0.8484	813.6 ± 0.8
323.15 K, 40000 kPa, x1 = 0.8993	808 ± 0.8
323.15 K, 40000 kPa, x1 = 0.9503	802.8 ± 0.8
323.15 K, 40000 kPa, x1 = 1	797.7 ± 0.9
348.15 K, 100 kPa, x1 = 0.003	973.1 ± 0.3
348.15 K, 100 kPa, x1 = 0.0042	971.9 ± 0.3
348.15 K, 100 kPa, x1 = 0.0082	970.7 ± 0.3
348.15 K, 100 kPa, x1 = 0.0119	969.1 ± 0.3
348.15 K, 100 kPa, x1 = 0.0158	966.6 ± 0.3
348.15 K, 100 kPa, x1 = 0.0184	965.4 ± 0.3
348.15 K, 100 kPa, x1 = 0.0219	963.9 ± 0.3
348.15 K, 100 kPa, x1 = 0.0255	962 ± 0.3
348.15 K, 100 kPa, x1 = 0.0279	960.4 ± 0.3
348.15 K, 100 kPa, x1 = 0.0315	959.4 ± 0.3
348.15 K, 100 kPa, x1 = 0.0366	956.7 ± 0.3
348.15 K, 100 kPa, x1 = 0.0392	955.3 ± 0.3
348.15 K, 100 kPa, x1 = 0.0439	953.5 ± 0.3
348.15 K, 100 kPa, x1 = 0.0483	951.2 ± 0.3
348.15 K, 100 kPa, x1 = 0.0516	950.2 ± 0.3
348.15 K, 100 kPa, x1 = 0.0559	948.8 ± 0.3
348.15 K, 100 kPa, x1 = 0.06	946.9 ± 0.3
348.15 K, 100 kPa, x1 = 0.0652	944.8 ± 0.3
348.15 K, 100 kPa, x1 = 0.0679	943.7 ± 0.3
348.15 K, 100 kPa, x1 = 0.0722	941.5 ± 0.3
348.15 K, 100 kPa, x1 = 0.0801	938.1 ± 0.3
348.15 K, 100 kPa, x1 = 0.084	937.5 ± 0.3
348.15 K, 100 kPa, x1 = 0.0879	935.3 ± 0.3
348.15 K, 100 kPa, x1 = 0.0926	933.6 ± 0.3
348.15 K, 100 kPa, x1 = 0.0958	932.2 ± 0.3
348.15 K, 100 kPa, x1 = 0.1006	930.2 ± 0.3
348.15 K, 100 kPa, x1 = 0.1111	925.9 ± 0.3
348.15 K, 100 kPa, x1 = 0.1225	921.5 ± 0.3
348.15 K, 100 kPa, x1 = 0.1296	918.7 ± 0.3
348.15 K, 100 kPa, x1 = 0.1402	914.6 ± 0.3
348.15 K, 100 kPa, x1 = 0.151	910.4 ± 0.3
348.15 K, 100 kPa, x1 = 0.1601	906.9 ± 0.3
348.15 K, 100 kPa, x1 = 0.1703	903.1 ± 0.3
348.15 K, 100 kPa, x1 = 0.18	899.5 ± 0.3
348.15 K, 100 kPa, x1 = 0.1903	895.8 ± 0.3
348.15 K, 100 kPa, x1 = 0.1996	892.6 ± 0.3
348.15 K, 100 kPa, x1 = 0.2269	883.1 ± 0.3
348.15 K, 100 kPa, x1 = 0.2502	875.6 ± 0.3
348.15 K, 100 kPa, x1 = 0.2745	868 ± 0.3
348.15 K, 100 kPa, x1 = 0.3009	860.4 ± 0.3
348.15 K, 100 kPa, x1 = 0.35	846.7 ± 0.3
348.15 K, 100 kPa, x1 = 0.4034	833.4 ± 0.3
348.15 K, 100 kPa, x1 = 0.4501	822.7 ± 0.3
348.15 K, 100 kPa, x1 = 0.498	812.7 ± 0.3
348.15 K, 100 kPa, x1 = 0.5501	802.6 ± 0.4
348.15 K, 100 kPa, x1 = 0.5998	793.8 ± 0.4
348.15 K, 100 kPa, x1 = 0.6489	785.6 ± 0.4
348.15 K, 100 kPa, x1 = 0.6967	778.2 ± 0.4
348.15 K, 100 kPa, x1 = 0.7475	770.9 ± 0.4
348.15 K, 100 kPa, x1 = 0.7996	763.9 ± 0.4
348.15 K, 100 kPa, x1 = 0.8484	757.6 ± 0.4
348.15 K, 100 kPa, x1 = 0.8993	751.5 ± 0.4
348.15 K, 100 kPa, x1 = 0.9503	745.7 ± 0.4
348.15 K, 100 kPa, x1 = 1	739.4 ± 0.4
348.15 K, 10000 kPa, x1 = 0.003	977.5 ± 0.3
348.15 K, 10000 kPa, x1 = 0.0042	976.3 ± 0.3
348.15 K, 10000 kPa, x1 = 0.0082	975 ± 0.3
348.15 K, 10000 kPa, x1 = 0.0119	973.4 ± 0.3
348.15 K, 10000 kPa, x1 = 0.0158	971 ± 0.3
348.15 K, 10000 kPa, x1 = 0.0184	969.6 ± 0.3
348.15 K, 10000 kPa, x1 = 0.0219	968.2 ± 0.3
348.15 K, 10000 kPa, x1 = 0.0255	966.4 ± 0.3
348.15 K, 10000 kPa, x1 = 0.0279	964.8 ± 0.3
348.15 K, 10000 kPa, x1 = 0.0315	963.8 ± 0.3
348.15 K, 10000 kPa, x1 = 0.0366	961 ± 0.3
348.15 K, 10000 kPa, x1 = 0.0392	959.6 ± 0.3
348.15 K, 10000 kPa, x1 = 0.0439	957.8 ± 0.3
